Test results: patent US11987807B2, “Isolated human lung progenitor cells and uses thereof” (THE GENERAL HOSPITAL CORPORATION, priority 2012, dated 2024)
Like-named read-outs stand apart in the source and are kept apart here.

How the values were obtained:
[1] = system: mouse ESC-derived endoderm / anterior foregut endoderm cells; settings: for NKX2.1 induction: anteriorized endoderm, BMP4 alone, or FGF2 or/and GSK3i without BMP4
From the text: Dorsomorphin inhibits BMP signaling through the SMAD pathway while PD98059 inhibits MAPK signaling.
A recent report described a monolayer-based strategy using synergistic activation of Nodal and Wnt-β-catenin signaling as well as staged BMP4 inhibition to direct mouse ES cells towards an endoderm fate with high efficiency (Sherwood et al., 2011). This technology was adapted herein to generate definitive endoderm (DE) from mouse ES cells. […] Snoeck and colleagues reported that Noggin (a BMP inhibitor) synergized with SB431542 (a TGFβ inhibitor) to suppress a posterior endoderm fate (Cdx2+) in favor of an anterior endoderm fate (Sox2+) (Green et al., 2011). […] Endoderm was treated with combinations of Activin (a TGFβ agonist), A-83-01 (a TGFβ antagonist), BMP4, and Dorsomorphin (a BMP4 antagonist) for 2 days (FIG. 2B). The number of FoxA2+Sox2+ anterior endoderm cells was compared to the total number of FoxA2+ endoderm cells (FIG. 2B). The treated cells were further exposed to the BMP4/FGF2/WNT agonist cocktail for another 2 days to examine their competence to generate Nkx2.1+ cells (FIG. 2B). […] It was tested if their inhibition would enhance anteriorization together with a TGFβ inhibitor.
The expression of lung and other anterior cell fate lineage genes including FoxN1 (thymus), Pax8 (thyroid), and Pax9 and Tbx1 (pharyngeal pouch endoderm) was analyzed by real-time qPCR (Figure S4A).
It was tested if BMP4, FGF2, and WNT signaling are each required to specify lung endoderm from the anterior foregut in an in vitro mouse ESC differentiation system. To do this, anteriorized endoderm cells were exposed to combinations of BMP4, FGF2 and WNT agonists and antagonists (FIGS. 3A and B).
These complexes translocate to the nucleus and activate expression of target genes (von Bubnoff and Cho, 2001; Chen et al., 2004; Sieber et al., 2009; Miyazono et al., 2010). Besides Smad1/5/8-mediated transcription, BMP-induced receptor complexes can activate the mitogen-activated protein kinase (MAPK) pathway via ERK, […] or p38 (Kozawa et al., 2002).
(§1) Mouse Endoderm Anteriorization and Nkx2.1 Cell Differentiation: Mouse definitive endoderm was generated as described herein. To anteriorize endoderm, on and after day 5, the cells were split and re-seeded on to the plates pre-coated with 804G-conditioned medium and fed with DO medium+0.5-1 μM A8301 (CalBiochem, 616454) for 2 days.

[2] = system: mouse ES cell-derived definitive endoderm; assay: Anteriorization of mouse ESC-derived definitive endoderm to FoxA2+Sox2+ anterior foregut endoderm; assay type: cell-based; settings: for effect on FoxA2+Sox2+ cells: treatment of definitive endoderm at the anteriorization step
Experimental: This technology was adapted herein to generate definitive endoderm (DE) from mouse ES cells. […] Next, it was asked if the newly generated DE cells have the competence to generate Nkx2.1+ cells. […] Since the inventors had already incorporated BMP inhibition during DE generation (FIG. 7), the question whether continuous BMP inhibition is necessary for anteriorization or if TGFβ inhibition alone was sufficient for anterior patterning was explored. Endoderm was treated with combinations of Activin (a TGFβ agonist), A-83-01 (a TGFβ antagonist), BMP4, and Dorsomorphin (a BMP4 antagonist) for 2 days (FIG. 2B). The number of FoxA2+Sox2+ anterior endoderm cells was compared to the total number of FoxA2+ endoderm cells (FIG. 2B). The treated cells were further exposed to the BMP4/FGF2/WNT agonist cocktail for another 2 days to examine their competence to generate Nkx2.1+ cells (FIG. 2B). […] It was tested if their inhibition would enhance anteriorization together with a TGFβ inhibitor.
Mouse Endoderm Anteriorization and Nkx2.1 Cell Differentiation: Mouse definitive endoderm was generated as described herein. To anteriorize endoderm, on and after day 5, the cells were split and re-seeded on to the plates pre-coated with 804G-conditioned medium and fed with DO medium+0.5-1 μM A8301 (CalBiochem, 616454) for 2 days. Then the media was rinsed with DO medium 2 times and switched to DO medium supplemented with 50 ng/ml BMP4, 100 ng/ml FGF2 (GIBCO, PHG0026), and 5-10 nM GSK3iXV for another 2-3 days. To generate Nkx2.1+Sox2+ proximal progenitor cells, the cells were rinsed with DO medium 2 times and switched to DO medium containing RA-supplemented B27, 50 ng/ml BMP7, 50 ng/ml FGF7, 100 nM IWR-1, and 1-2 μM PD98059 for 2 days or longer times.
Immunofluorescence: At each differentiation step, the cells were fixed with fresh paraformaldehyde (4%) for 15 min at room temperature, rinsed in PBS, washed with PBS+0.2% Triton X-100 and incubated with the primary antibodies at 4° C. overnight (>16 hrs) diluted in PBS+1% BSA. Following incubation, the cells were rinsed 4 times PBS+0.2% Triton X-100, and incubated with secondary antibodies at room temperature for 2 hours. The images were visualized using an Olympus IX71 inverted fluorescence microscope or a Nikon A1 Confocal Laser microscope.
The secondary antibodies were purchased from Invitrogen (AlexaFluor-549 and AlexaFluor-488). The quantification was performed by counting at least 5 random fields at 20× magnification and calculating the average and standard deviation.

[3] = system: mouse ESC-derived Nkx2.1+ cells; assay: Generation of proximal airway progenitors from mouse ESC-derived Nkx2.1+ lung endoderm cells; assay type: cell-based
Experimental: as §1

[4] = system: human iPSC-derived Foxa2+Sox2+ anterior endoderm; assay: Chemical screening and differentiation of Nkx2.1+ lung progenitors from human iPSC-derived Foxa2+Sox2+ anterior endoderm; assay type: cell-based
Experimental: In order to increase the efficiency of Nkx2.1+ lung progenitor production, the inventors performed an unbiased high throughput chemical screening on a kinase pathway inhibitor library and an NIH clinical drug library to identify small molecule compounds and FDA-approved clinical drugs that can facilitate NKX2.1-positive lung progenitor differentiation. The platform for chemical screening is illustrated in FIG. 14A. The screening was performed at the step of conversion of Foxa2+Sox2+ anterior endoderm to Nkx2.1+ lung endoderm.
At least five molecules were identified from the Kinase Compound Set (240 compounds) and at least 6 drugs were identified from the NIH Clinical Collection (400 compounds) that produced statistically significant (more than 3 fold) increases in the percentage of Nkx2.1+ cells (FIG. 14B). These Nkx2.1+ cells have been further stained in separate experiments to exclude the expression of neuronal lineage marker Tuj1 and thyroid lineage marker Pax8. In addition, all positive candidates identified in the primary screen have been assessed for drug duration and dose effects to increase the formation of lung progenitors, and they have been evaluated for other effects including inducing cytotoxicity, and cellular proliferation by Ki67 staining. […] It was also determined that BMP4 is dispensable for human lung progenitor differentiation from iPSCs, indicating a species difference in lung development in human and mouse.
Several of these negative compounds are MEK1/2 antagonists. […] For example, endoderm-specific deletion of MEK1/2 results in lung agenesis in mice (unpublished data).
After studying the additive and synergistic effects of the positive hits, a robust and economically efficient new protocol was devised for the generation of a highly enriched population of Nkx2.1+ lung progenitors (up to 85%-90%) from multiple iPS cell lines in xeno-free conditions in order to keep the cells suitable for future clinical applications. This exemplary differentiation medium contains one Wnt agonist (e.g., 0.5 uM CHIR9902), one PI3 kinase inhibitor (e.g., 0.02-0.05 uM PIK-75), one clinically used drug (e.g., 0.02-0.05 uM methotrexate), one BMP antagonist (e.g., 2-4 uM Dorsomorphin) and a single growth factor (e.g., 10-50 ng/ml FGF2). FIG. 12 is the summary of the newly developed step-wise airway progenitor differentiation protocol from iPSC to airway progenitors. Many other protocols can be generated by one of skill in the art from this basic protocol (RPMI+2% B27+10-50 ng/ml FGF2+0.5 uM CHIR9902+2-4 uM Dorsomorphin) together with the compounds listed in FIG. 14.

COC(=O)c1ccc[cH-]1.O=C1NC(=O)c2c1c1cccnc1c1[n-]c3c(Br)cc(O)cc3c21.[CH+]=O.[Ru] [GSK3i]
NKX2.1 induction [1]: not sufficient for NKX2.1 induction

O=C(Nc1cccc2cccnc12)c1ccc(N2C(=O)[C@@H]3[C@H](C2=O)[C@@H]2C=C[C@H]3C2)cc1 [IWR-1]
effect on FoxA2+Sox2+ cells [2]: did not increase the FoxA2+Sox2+ population
effect on Nkx2.1+Sox2+ cell production ([3]; individual factors removed or replaced in proximal induction medium): most pronounced effect

COc1cccc(-c2cc(=O)c3ccccc3o2)c1N [PD98059]
cell death [1]: Significant cell death
effect on generation of Nkx2.1+ cells ([1]; added to BMP4 induction (pSmad1/5/8 or MAPKK/ERK inhibition)): only partially decreased the Nkx2.1+ cell proportion
Nkx2.1+Sox2+ airway progenitor cells (of total number of Nkx2.1+ cells) ([3]; from day 9, 2-3 days, 1%-2% before treatment): up to 18%

CCN(CC)CCCCNc1ncc2cc(-c3cc(OC)cc(OC)c3)c(NC(=O)NC(C)(C)C)nc2n1 [PD173074]
cell death ([2]; together with a TGFβ inhibitor at anteriorization): induced cell death

CCCCCCCCCCCCCC(=O)O[C@@H]1[C@@H](C)[C@@]2(O)[C@@H](C=C(CO)C[C@]3(O)C(=O)C(C)=C[C@@H]23)[C@@H]2C(C)(C)[C@]12OC(C)=O [phorbol 12-myristate 13-acetate]
NKX2.1+ cell production ([4]; in vitro differentiation systems): stimulates NKX2.1+ cell production

BMP4: bone morphogenic protein 4, growth factor
neuroectodermal marker Tuj1 ([2]; BMP4 present between days 5-7): less neuroectodermal marker Tuj1 was present
NKX2.1 induction [1]: could induce NKX2.1 expression
requirement for human lung progenitor differentiation from iPSCs [4]: dispensable
NKX2.1 expression level ([4]; addition of BMP4): decreases NKX2.1 expression
total NKX2.1+ lung progenitor cell number ([4]; addition of BMP4): without affecting the total NKX2.1+ lung progenitor cell number

FGF2: fibroblast growth factor
effect on Nkx2.1+ cells ([1]; added dose of FGF2 despite presumptive endogenous FGF signaling): upregulated Nkx2.1+ cells
NKX2.1 induction [1]: not sufficient for NKX2.1 induction

B1: Activin: a TGFβ agonist (protein, UniProt P08476 311-426, looked up)
Inhibin beta A chain: GLECDGKVNICCKKQFFVSFKDIGWNDWIIAPSGYHANYCEGECPSHIAGTSGSSLSFHSTVINHYRMRGHSPFANLKSCCVPTKLRPMSMLYYDDGQNIIKKDIQNMIVEECGCS
modifications: Inhibin beta A chain
notes: a TGFβ agonist
effect on FoxA2+Sox2+ cells [2]: rare FoxA2+Sox2+ cells
effect on Nkx2.1+ cells ([1]; treatment at the anteriorization step, then BMP4/FGF2/WNT agonist cocktail 2 days): few Nkx2.1+ cells

B2: BMP7: BMP family member binding type I receptor ALK2 (protein, UniProt P18075 293-431, looked up)
Bone morphogenetic protein 7: STGSKQRSQNRSKTPKNQEALRMANVAENSSSDQRQACKKHELYVSFRDLGWQDWIIAPEGYAAYYCEGECAFPLNSYMNATNHAIVQTLVHFINPETVPKPCCAPTQLNAISVLYFDDSSNVILKKYRNMVVRACGCH
induction of Nkx2.1+ cells from the anterior endoderm compared to BMP4 ([1]; BMP7 10 ng/ml): had no effect
induction of Nkx2.1+ cells from the anterior endoderm ([1]; increased concentration (>100 ng/ml)): still failed to generate Nkx2.1+ cells
